Data on nine compounds can be found in PubChem BioAssay (NCI).

Values joined by “and” are separate entries in the source; they are usually repeats but may differ in a detail not shown here. Equal entries are not always repeated.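 Results reflect a 48-hour exposure of cells in 96-well plates to compound at five concentrations. At the GI50, growth is halved. At the TGI there is no net growth.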

What all share (experiment): NCI tumour cell line growth inhibition, 48 h
The subject of experiment [1] is HOP-62 NSCLC.
The test system of experiment [2] is UACC-257 melanoma.
For experiment [3], the system named is SR leukemia.
Experiment [4] relates to NCI-H460 lung.
Experiment [5] relates to 786-0 renal.
The subject of experiment [6] is MALME-3M melanoma.
Experiment [7] relates to RPMI-8226 leukemia.
Experiment [8] has as its system HOP-92 NSCLC.
The subject of experiment [9] is SF-539 CNS.
Experiment [10] deals with SNB-19 CNS.

`Cc1ccc(C(O)c2cnc(C)n2Cc2ccccc2)cc1` (centres undefined): the TGI in experiment [1], in experiment [2], in [3], in experiment [4], in [5] and in experiment [6] was > 100 µM each time. Further, the TGI in experiment [7], in experiment [8], in experiment [9] and in experiment [10] was > 100 µM each time.
For `C=C(C)C(=O)O[C@H]1[C@H]2[C@H](OC(=O)[C@H]2C)[C@H](O)[C@@H](C)[C@@H]2C=CC(=O)[C@]21C`, the TGI in experiment [1] is 34.1 µM; in [2] it was 7.73 µM; in experiment [3], 5.39 µM; in experiment [4], 3.72 µM; in experiment [5], 5.21 µM; in experiment [6], 5.54 µM. Also, the TGI in experiment [7] turned out to be 9.73 µM; in [8], 8.89 µM; in [9], 16.5 µM; in [10], 18.6 µM.
Take `CCCCN(Cc1ccc(F)cc1)c1ccc(CO)c(Cl)c1`: the GI50 was 11.1 µM in experiment [1]; 0.862 µM in [2]; 14.6 µM in experiment [3]; 2.46 µM in experiment [4]; 12.2 µM in experiment [5]; 17.7 µM in [6]. In addition, the GI50 in experiment [7] was 10.1 µM; in [8], 3.32 µM; in experiment [9], 17.7 µM; in experiment [10] it was 14.3 µM. The TGI was 23.4 µM in [1]; 3.75 µM in experiment [2]; 34.7 µM in experiment [3]; 13.4 µM in experiment [4]; 25.6 µM in experiment [5]; 33.8 µM in [6]. For the same compound, the TGI was 36.3 µM in [7], 19.5 µM in experiment [8], 32.6 µM in [9] and 27.7 µM in experiment [10].
With `COc1cc[nH]c1/C=C1\C(=O)Nc2ccc(F)c(I)c21`, the GI50 in experiment [1], in [2], in experiment [3], in experiment [4], in experiment [5] and in [6] was > 25 µM in each case. In addition, the GI50 in experiment [7], in [8], in experiment [9] and in experiment [10] was > 25 µM each time. The TGI in [1], in experiment [2], in experiment [3], in experiment [4], in experiment [5] and in experiment [6] was > 25 µM each time. For the same compound, the TGI in experiment [7], in [8], in experiment [9] and in experiment [10] was > 25 µM each time.
Take `CCCCn1cnc2c(SC)ncnc21`: the TGI in [1] was > 100 µM; in experiment [2] it was > 100 µM; in experiment [3], 94.4 µM; in experiment [4], > 100 µM; in experiment [5], > 100 µM; in experiment [6] it was > 100 µM. Also, the TGI in experiment [7], in experiment [8], in experiment [9] and in experiment [10] was > 100 µM throughout.
Turning to `CCC12CCCC(=O)N1C(CO)C(c1ccccc1)O2` (centres undefined), the TGI in [1], in experiment [2], in experiment [3], in experiment [4], in experiment [5] and in [6] was > 100 µM in each case. For the same compound, the TGI in experiment [7], in [8], in [9] and in [10] was > 100 µM throughout.
Turning to `O=C(CCl)N1c2ccccc2Sc2c1ccc1ccccc21`, the GI50 in [1] was 3.29 µM; in [2] it was 2.24 µM; in experiment [3] it was 2.4 µM; in experiment [4], 2.11 µM; in experiment [5] it was 1.82 µM; in experiment [6], 2.75 µM. Besides, the GI50 in [7] is 3.08 µM; in experiment [8], 1.04 µM; in experiment [9], 2.08 µM; in experiment [10] it was 4.37 µM. Moreover, the TGI in [1] was 12.9 µM; in experiment [2], 5.6 µM; in experiment [3] it was 9.55 µM; in experiment [4] it was 4.34 µM; in [5], 3.27 µM; in [6] it was 7 µM. The TGI in experiment [7] was determined as 13.1 µM; in experiment [8], 5.32 µM; in experiment [9], 4.81 µM; in experiment [10] it was 15.1 µM.
`CC(=O)O[C@@H]1CC2C(C)(C)CCCC2(C)C2=C1C(=O)C(C(C)C)=CC2=O` (some centres undefined): the GI50 in experiment [1] was 1.77 µM; in [2], 1.55 µM; in experiment [3], 0.653 µM; in experiment [4] it was 0.423 µM; in experiment [5] it was 0.781 µM; in experiment [6], 0.784 µM. For the same compound, the GI50 in experiment [7] is 0.948 µM; in experiment [8] it was 0.652 µM; in experiment [9], 1.17 µM; in experiment [10] it was 0.87 µM. Moreover, the TGI was 4.13 µM in [1]; 4.29 µM in experiment [2]; > 100 µM in experiment [3]; 1.9 µM in experiment [4]; 6.95 µM in [5]; 4.8 µM in experiment [6]. For the same compound, the TGI in experiment [7] is 93.4 µM; in [8], 2.1 µM; in experiment [9], 4.05 µM; in experiment [10], > 100 µM.
For the compound `CC1C(=O)C(C)C(c2ccccc2)N(N=O)C1c1ccccc1` (centres undefined), the GI50 in [1] was 111 µM; in experiment [8], 107 µM; in experiment [9] it was > 50.3 µM; in [10], 312 µM. Also, the TGI in experiment [1] is > 78.3 µM and 360 µM; in [2] it was > 897 µM; in [3], > 1000 µM; in experiment [4], > 1000 µM; in experiment [5], 359 µM; in experiment [6], > 516 µM. In addition, the TGI was > 1000 µM in experiment [7]; 78.4 µM and 264 µM in experiment [8]; > 79 µM and 310 µM in [9]; > 830 µM in [10].
